Assay results from article PMC4072508, “Genome-Wide Prediction and Validation of Peptides That Bind Human Prosurvival Bcl-2 Proteins” (PLoS Computational Biology, 2014).
pKd: −log10 of the molar value. “And” between values parts separate entries of the source, which are not always exact repeats. Equal values may be shown once. Read-outs that look alike come from different tables or passages of the source. Residues, ends and D or L forms follow the SMILES beside them. No end group written: not given here.

Experiments:
Assay in all cases: Fluorescence polarization direct binding
[1] = target: T1, Mcl-1 (Homo sapiens, UniProt Q07820); conditions: for pKd: Binder class, Mcl-1, benchmark classification of peptides newly characterized in this study
T1 construct: myc-Mcl-1 SPOT array & FP; made in house
Experimental: (§1) Peptides were purified by reverse-phase HPLC using a C18 column and a linear water/acetonitrile gradient. We re-analyzed the purified peptide by mass spectrometry if there was not a single well-defined peak in HPLC chromatogram.
(§2) Fluorescence polarization (FP) assays were done at 25°C in assay buffer (20 mM NaPO4, 50 mM NaCl, 1 mM EDTA, 0.001% Triton X (v/v), pH 7.8). […] For all FP experiments, the total well volume was 120 µl. […] Anisotropy was measured using a Spectramax M5 plate reader from Molecular Devices.
(§3) Direct binding curves were fit using Pylab/Scipy/Optimize to a single-site binding model utilized previously.
(§4) ^1Best-fit KD values determined by combining all replicate titration curves and fitting to a direct binding model (see Methods). […] Values with an X followed by a number indicate the highest concentration (the number, in nM) for which signal was measured yet no binding was detected.

[2] = target: T2, Bfl-1 (Homo sapiens, UniProt Q16548); conditions: for Kd: FP direct binding, 10 nM FAM-labeled peptide, receptor titrated, 25°C, pH 7.8, fit of all replicate titrations, X+number in a cell = highest concentration (nM) measured with no binding detected, given here as >, SPNS1 fit to raw fluorescence, read-out: Best-fit KD, Bfl-1; for pKd: benchmark classification of peptides newly characterized in this study, read-out: Binder class, Bfl-1
T2 construct: myc- Bfl-1 SPOT array & FP; made in house
T2 sequence (Q16548 with tags, fused parts or gaps): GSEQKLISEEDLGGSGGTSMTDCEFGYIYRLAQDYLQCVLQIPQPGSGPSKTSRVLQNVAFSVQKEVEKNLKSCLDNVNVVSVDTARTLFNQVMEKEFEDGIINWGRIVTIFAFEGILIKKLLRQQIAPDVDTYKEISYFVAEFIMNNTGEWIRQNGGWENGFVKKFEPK
Experimental: as §1, §2, §3, §4

[3] = target: T3, Bcl-2 (Homo sapiens, UniProt P10415, DEL53-91); conditions: for Kd: read-out: Best-fit KD, Bcl-2; for pKd: benchmark classification of peptides newly characterized in this study, read-out: Binder class, Bcl-2
T3 construct: myc- Bcl-2 FP; made in house
Experimental: as §1, §2, §3, §4

[4] = target: T4, Bcl-xL (Homo sapiens, UniProt Q07817); conditions: for Kd: read-out: Best-fit KD, Bcl-xL; for pKd: benchmark classification of peptides newly characterized in this study, read-out: Binder class, Bcl-xL
T4 construct: myc-Bcl-xL SPOT array & FP; made in house
Experimental: as §1, §2, §3, §4

[5] = target: T5, Bcl-w (Homo sapiens, UniProt Q92843, Q133R); conditions: for Kd: read-out: Best-fit KD, Bcl-w; for pKd: benchmark classification of peptides newly characterized in this study, read-out: Binder class, Bcl-w
T5 construct: myc-Bcl-w SPOT array & FP; made in house
T5 sequence (Q92843 with tags, fused parts or gaps Q133R): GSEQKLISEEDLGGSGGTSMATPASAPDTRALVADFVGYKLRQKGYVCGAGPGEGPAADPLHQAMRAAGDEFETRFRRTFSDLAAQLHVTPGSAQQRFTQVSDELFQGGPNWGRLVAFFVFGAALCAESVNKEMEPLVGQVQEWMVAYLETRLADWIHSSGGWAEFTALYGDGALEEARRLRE
Experimental: as §1, §2, §3, §4

[6] = FP direct binding, 10 nM FAM-labeled peptide, receptor titrated, 25°C, pH 7.8, fit of all replicate titrations, X+number in a cell = highest concentration (nM) measured with no binding detected, given here as >, SPNS1 fit to raw fluorescence

T3 sequence (P10415 with tags, fused parts or gaps DEL53-91): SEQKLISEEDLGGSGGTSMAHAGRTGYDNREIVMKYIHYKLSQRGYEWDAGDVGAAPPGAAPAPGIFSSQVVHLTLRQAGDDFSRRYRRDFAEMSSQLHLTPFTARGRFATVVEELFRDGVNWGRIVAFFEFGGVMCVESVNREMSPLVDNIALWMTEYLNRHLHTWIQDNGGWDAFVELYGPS
T1 sequence (Q07820 with tags, fused parts or gaps): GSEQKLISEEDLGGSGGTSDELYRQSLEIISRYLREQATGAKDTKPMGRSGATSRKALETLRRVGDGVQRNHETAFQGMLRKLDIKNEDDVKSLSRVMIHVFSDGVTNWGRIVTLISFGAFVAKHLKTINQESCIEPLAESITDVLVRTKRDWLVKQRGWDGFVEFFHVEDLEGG
T4 sequence (Q07817 with tags, fused parts or gaps): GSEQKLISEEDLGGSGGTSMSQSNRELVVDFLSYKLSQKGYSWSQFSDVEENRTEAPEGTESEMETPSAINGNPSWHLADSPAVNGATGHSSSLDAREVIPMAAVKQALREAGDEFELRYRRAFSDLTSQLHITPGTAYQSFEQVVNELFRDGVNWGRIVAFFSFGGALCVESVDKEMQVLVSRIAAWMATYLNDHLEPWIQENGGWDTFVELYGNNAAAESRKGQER

Molecule | pKd [1] | Kd [1, 6] | Kd [2] | Kd [3, 6] | Kd [4, 6] | Kd [5, 6] | pKd [2] | pKd [3] | pKd [4] | pKd [5] | Best-fit KD, Bcl-2 [3, 6] | Best-fit KD, Bcl-xL [4, 6] | Best-fit KD, Bcl-w [5, 6] | Best-fit KD, Mcl-1 [1, 6]
CC(C)C[C@H](NC(=O)CNC(=O)[C@@H](NC(=O)[C@H](CCCCN)NC(=O)[C@H](CCCCN)NC(=O)[C@H](CC(N)=O)NC(=O)[C@H](CCC(=O)O)NC(=O)[C@H](CC(=O)O)NC(=O)[C@@H](N)[C@@H](C)O)C(C)C)C(=O)N[C@@H](C)C(=O)N[C@@H](CC(C)C)C(=O)N[C@@H](CCCCN)C(=O)N[C@@H](CC(=O)O)C(=O)N[C@@H](CC(C)C)C(=O)N[C@@H](C)C(=O)N[C@@H](CCCCN)C(=O)N[C@@H](CCC(N)=O)C(=O)N[C@@H](Cc1ccc(O)cc1)C(=O)N[C@@H](CO)C(=O)N[C@@H](CC(=O)O)C(=O)N[C@@H](CCCNC(=N)N)C(=O)N[C@@H](CC(C)C)C(=O)N[C@@H](CCC(=O)O)C(=O)N[C@@H](CS)C(=O)N[C@@H](CS)C(=O)N[C@@H](CCC(=O)O)C(N)=O [NUB1] (H-TDENKKVGLALKDLAKQYSDRLECCE-NH2) | < 5.00 | > 10000 nM | > 4000 nM | 562 nM | 2720 nM | > 4000 nM | – | – | – | – | – | – | – | –
AIRPRAVELRHLADDFINGNKKK-NH2 [MCF2L2] | < 5.00 | > 4000 nM | > 3370 nM | 60 nM | 292 nM | 1120 nM | < 5.00 | > 6.00 | > 6.00 | 5.00 to 6.00 | – | – | – | –
APYYLSRNLKQQADIIFMPYNYL-NH2 [RTEL1] | 5.00 to 6.00 | > 4000 nM | > 4000 nM | 342 nM | 1380 nM | > 100000 nM | < 5.00 | 5.00 to 6.00 | 5.00 to 6.00 | 5.00 to 6.00 | – | – | – | –
ATKRETAATFLKKVAKEFGFQNNGFS-NH2 [NPLOC4] | 5.00 to 6.00 | > 4000 nM | > 4670 nM | 2060 nM | > 100000 nM | > 4500 nM | < 5.00 | < 5.00 | < 5.00 | < 5.00 | – | – | – | –
ATRRLSGFLRTLADRLEGTKELL-NH2 [MINA] | < 5.00 | > 10000 nM | 1130 nM | 266 nM | 1010 nM | 1230 nM | 5.00 to 6.00 | > 6.00 | 5.00 to 6.00 | 5.00 to 6.00 | – | – | – | –
AWGKFGGAFARYADEMKEIQERQ-NH2 [PURB] | < 5.00 | > 4000 nM | > 4670 nM | 34 nM | > 100000 nM | > 1800 nM | < 5.00 | > 6.00 | < 5.00 | < 5.00 | – | – | – | –
ELQELARKLQELADASENLLTEN-NH2 [TXNDC11] | 5.00 to 6.00 | 2380 nM | > 10000 nM | 86 nM | 1490 nM | 249 nM | < 5.00 | > 6.00 | 5.00 to 6.00 | > 6.00 | – | – | – | –
EVLAGPLAQRLSHIAEDVGRLVKKSR-NH2 [ARHGAP4] | > 6.00 | > 2430 nM | > 5590 nM | 6090 nM | 3060 nM | 749 nM | < 5.00 | 5.00 to 6.00 | 5.00 to 6.00 | 5.00 to 6.00 | – | – | – | –
FTGNNTAVQELKRVSEQFTATFRRKA-NH2 [TUBB4Q] | > 6.00 | 1460 nM | > 4670 nM | 1410 nM | 2050 nM | 2490 nM | < 5.00 | 5.00 to 6.00 | 5.00 to 6.00 | 5.00 to 6.00 | – | – | – | –
GDSVLARMLRELGDSLRRPQLRL-NH2 [SLC19A1] | > 6.00 | 22 nM | 182 nM | 237 nM | 1460 nM | 18 nM | > 6.00 | > 6.00 | 5.00 to 6.00 | > 6.00 | – | – | – | –
GSGAWGLLLRRVGDDVLVHLLAR-NH2 [TERT] | > 6.00 | 69 nM | 99 nM | 49 nM | – | 992 nM | > 6.00 | > 6.00 | 5.00 to 6.00 | > 6.00 | – | – | – | –
IIHKLAMQLRHIGDNIDHRMVRE-NH2 [PXT1] | > 6.00 | < 30 nM and 0.9 nM | < 30 nM and 1 nM | < 30 nM and 14 nM | < 30 nM and 8 nM | < 30 nM and 5 nM | > 6.00 | > 6.00 | > 6.00 | > 6.00 | – | – | – | –
KKMTLSEIYRWIADNFPYYKNAG-NH2 [FOXJ2] | < 5.00 | > 10000 nM | > 3370 nM | 130 nM | 103 nM | 85 nM | < 5.00 | > 6.00 | > 6.00 | > 6.00 | bound tightly | bound tightly | bound tightly | –
KREKLVEILRNIGDERTMVFVET-NH2 [DDX4] | > 6.00 | 142 nM | > 3370 nM | > 3050 nM | > 4000 nM | > 4350 nM | < 5.00 | > 6.00 | < 5.00 | 5.00 to 6.00 | – | – | – | bound tightly
LMARPAVALHFQSIADGFKEAVRYVL-NH2 [SOS2] | < 5.00 | > 4000 nM | > 3290 nM | 3290 nM | > 6900 nM | 5380 nM | < 5.00 | 5.00 to 6.00 | < 5.00 | 5.00 to 6.00 | – | – | – | –
